According to PMC11868579 (Nature Communications, 2024):

Assays:
Caco-2 monolayer = assay: Caco-2 permeability assay; format: in vitro ADME
Protocol: Caco-2 permeability Assay
The permeability of Compound 4 was assessed using the CacoReady system.
Compound 4 and control compounds (propranolol, antipyrine, and vinblastine) were incubated at a final concentration of 10 µM in duplicate to either the apical (180 µL) of the monolayer to measure apical to basolateral transport (A > B) across the cell barrier or to the basolateral side (750 µL) to measure the basolateral to apical transport (B > A). For A > B spiking, test and control compounds were diluted from 10 mM DMSO stocks to 10 µM in HBSS buffer with 100 mM CaCl2·2H2O, 50 mM MgCl2·5H2O, and 0.5 mg/mL lucifer yellow made to volume with sterile water (lucifer yellow was used to determine the integrity of the Caco-2 monolayer). For B > A compound spiking, test and control compounds were prepared as for the A > B solutions without the addition of lucifer yellow. Test and control compounds were incubated for 1 h at +37 °C in a highly humidified atmosphere of 95% air and 5% CO2. […]

full-length eIF4G:eIF4E = molecular target: T1, full-length eIF4G:eIF4E (Homo sapiens, UniProt P06730); assay: eIF4G:eIF4E binding, summary over cell line lysates; format: biochemical
T1 construct: endogenous in cells; host or cells: HeLa, SW620 or H1299 cells (lysates; intact H1299 cells in A13)
T1 sequence (P06730 2-217 limits assumed): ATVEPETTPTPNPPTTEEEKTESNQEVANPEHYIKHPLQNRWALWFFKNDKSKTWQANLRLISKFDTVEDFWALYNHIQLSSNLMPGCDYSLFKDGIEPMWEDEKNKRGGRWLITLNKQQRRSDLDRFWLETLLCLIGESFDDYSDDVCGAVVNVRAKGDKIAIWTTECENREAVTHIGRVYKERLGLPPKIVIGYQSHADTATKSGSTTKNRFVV
Protocol: This assay uses plates with carbon electrodes and electro-chemiluminescent labels (SULFO-TAGs) that are conjugated to detection antibodies. When an electric current is applied to the plate electrodes the SULFO-TAG labels will emit light that is measured to quantify analytes in the sample. […] For measuring exogenously expressed FLAG-tagged-eIF4E, 96-well Multiarray SECTOR plates with carbon electrodes (MSD, cat#L15XB) were coated with 25 ul of 4 µg/ml anti-FLAG M2 (Sigma-aldrich, cat#F1804, RRID:AB_262044) in PBS for 1 hr at RT with shaking. The plates were washed with 3 ×150 µl/well MSD wash buffer (cat#R61AA-1; 0.2% Tween-20 in PBS), then blocked with 150 µl/well block buffer (MSD, cat# R93AA) for 1 h. […] The incubated plates were washed 4x in 150 µl in MSD wash buffer and were re-blocked by the addition of 25 μl of blocking buffer containing a 1:500 dilution of the secondary antibody and incubated for 1 hr at RT with rotational shaking. […] Plates were then washed again 4x in 150 µl in MSD wash buffer and 25 μl of a 1:50 dilution of Goat anti-rabbit Sulfo-Tag (MSD, Cat# R32AB-1) in MSD blocking buffer was added and the plates incubated for 1 h at RT with rotational shaking. After a final wash step, 150 μl Read Buffer T4X (MSD, Cat# R92-TC2) was added and the plate read using the MSD QuickPlex SQ 120 plate reader.

[1] = test system: eIF4E-dTAG (FKBP12^F36V-tagged eIF4E); assay: Immunoblot of eIF4E-dTAG degradation in H1299 eIF4E-dTAG clones; format: cell-based, human; conditions: 6 h at ≈ 2–5x the IC50
Protocol: Treatment of isolated clones with the heterobifunctional dTAG^V−1 molecule recruits E3 ligase VHL to degrade eIF4E-dTAG. […] Parental H1299 cells and the selected eIF4E-dTAG clones were treated with 0.5 and 1 µM dTAG^V−1 for 6, 8, or 16 h. Vinculin was used as a loading control (n = 3 biological replicates). c Real-time cell growth measurements of the selected eIF4E-dTAG clones treated with 0.5 or 1 µM dTAG^V−1. Cell confluency (%) was monitored every 4 h over 6 days using Incucyte Zoom. Significance was determined using a one-way ANOVA with Tukey multiple comparisons test comparing dTAG^V−1 treatment with the control in each cell line. […] Significant differences between control and treated samples were determined using MSstats. […]
After seeding overnight in 6 well plates (Corning, cat#353046), cells were treated with compounds for the indicated times and concentration, harvested and the cell pellet lysed on ice in cell lysis buffer (Cell Signaling, cat#9803), supplemented with 1x Halt^TM protease inhibitor cocktail (Fisher Scientific, cat#78429) and cOmplete^TM protease inhibitor cocktail (Sigma-Aldrich, cat#11836153001) for 1 hr. Protein was quantified using BCA protein kit (Fisher Scientific, cat#23225). […] Quantitative densitometry analysis of protein bands was performed using Image J v1.53 software.

Row | SMILES | permeability in Caco2 assay (Caco-2 monolayer) | Caco-2 permeability Papp (A-B) (Caco-2 monolayer; 10 µM, 1 h) [×10⁻⁶ cm/s] | efflux ratio (Caco-2 monolayer; Caco2) | EC50 (full-length eIF4G:eIF4E; read-out: EC50s, eIF4G:eIF4E electro-chemiluminescent binding assay, three different cell line lysates) [µM] | IC50 (full-length eIF4G:eIF4E; read-out: full-length eIF4G:eIF4E IC50, lysates and intact cell engagement assays) [µM] | loss of eIF4E-dTAG [1]
1 | CC[C@H](O[C@H](C)CO)c1ccc(-c2ccccc2F)cc1NCCO [Compound 4] | good permeability | 9 | 1.5 | 1.4 to 2.6 | 1 to 2 | 
2 | CC[C@H](C(=O)N1CCCC[C@H]1C(=O)O[C@H](CCc1ccc(OC)c(OC)c1)c1ccccc1OCC(=O)NCCCCCCC(=O)N[C@H](C(=O)N1C[C@H](O)C[C@H]1C(=O)N[C@@H](C)c1ccc(-c2scnc2C)cc1)C(C)(C)C)c1cc(OC)c(OC)c(OC)c1 [dTAG^V-1] |  |  |  |  |  | near complete loss of eIF4E-dTAG
